Assay results taken from patent publication US8658801B2, “Pesticides containing a bicyclic bisamide structure” (Syngenta Crop Protection, LLC, priority 2006, dated 2014).

Assays:
[1] = test system: Thrips tabaci (Onion Thrips); experiment: Example B7: activity against Thrips tabaci, mixed population, feeding/residual contact, preventive; conditions: 144 h, read-out: activity
[2] = test system: Heliothis virescens (Tobacco Budworm); experiment: Example B2: activity against Heliothis virescens, ovo-larvicide, feeding/contact, curative; type: in vivo; conditions: 96 h, 4 days incubation, eggs 0-24 h old
Description: Activity Against Heliothis virescens (Tobacco Budworm)
(Ovo-Larvicide, Feeding/Contact Activity, Curative)
Eggs (0-24 h old) are placed in 24-well microtiter plate on artificial diet and treated with test solutions by pipetting. After an incubation period of 4 days, samples are checked for egg mortality, larval mortality, and growth regulation.

[3] = test system: Plutella xylostella (Diamond Back Moth); experiment: Example B3: Plutella xylostella, larvicide, feeding/residual contact, preventive (artificial diet MTP); type: in vivo; conditions: 120 h, 5 days incubation, L2 larvae
Outline: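 Artificial diet in multiwell plates treated with test solution, dried, then infested with 10–15 L2 larvae per well. After 5 days, larval mortality, antifeedant effect and growth regulation were scored.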

[4] = test system: Myzus persicae (Green Peach Aphid); experiment: Example B5: activity against Myzus persicae, mixed population, feeding/residual contact, preventive (sunflower leaf discs); conditions: foliar, 144 h, read-out: activity
[5] = test system: Frankliniella occidentalis (Western Flower Thrips); experiment: Example B9: activity against Frankliniella occidentalis (bean leaf discs or bean plants); type: in vivo; conditions: foliar, 6 days (leaf discs) or 14 days (plants) after infestation
Description: Activity Against Frankliniella occidentalis (Western Flower Thrips)
Bean leaf discs on agar in petri dishes or bean plants in a spray chamber are treated with diluted test solutions. After drying leaf discs are cut and placed in plastic cups on the surface of an agar layer and infested with mixed population. 6 days (leaf discs) or 14 days (plants) after the infestation, samples are checked for reduction of treated population and compared to the non treated population.

[6] = test system: Cydia pomonella (Codling Moth); experiment: Example B8: activity against Cydia pomonella (paraffin-coated diet cubes); type: in vivo; conditions: 336 h, 14 days incubation at 26° C.
Description: Activity Against Cydia pomonella (Codling Moth)
Standard Cydia diet cubes (1.5 cm width) are pierced with a tooth-pick and are immersed in liquid paraffin (ca. 80° C.). After the paraffin coat has hardened, an aqueous emulsion containing 400 ppm of active ingredient is applied using a De Vilbis sprayer (25 ml, 1 bar). After the spray coating has dried, the cubes are put into plastic containers which are then populated with two freshly hatched Cydia pomonella (1st instar). The containers are then closed with a plastic cap. After 14 days incubation at 26° C. and 40-60% relative humidity, the survival rate of the caterpillars as well as their growth regulation is determined. In this test, compounds listed in Table P above show good activity. In particular compounds P.10, P.11, P.12, P.18, P.19, P.20, P.29, P.30, P.31, P.32, P.33, P.34, P.35, P.37, P.38, P.39, P.42, and P.43 show an activity of over 80% at a concentration of 400 ppm.

[7] = test system: Spodoptera littoralis (Egyptian Cotton Leafworm); experiment: Example B1: activity against Spodoptera littoralis, larvicide, feeding/residual contact, preventive (cotton leaf discs); type: in vivo; conditions: foliar, 72 h, 3 days after treatment, L1 larvae
[8] = test system: Diabrotica balteata (Corn Root Worm); experiment: Example B4: Diabrotica balteata, larvicide, feeding/residual contact, preventive; type: in vivo; conditions: 120 h, 5 days incubation, L2 larvae
Outline: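 Artificial diet treated with test solution, dried, then infested with 6-10 L2 larvae per well. Larval mortality, antifeedant effect and growth regulation checked after 5 days of incubation.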

[9] = test system: Myzus persicae (Green Peach Aphid); experiment: Example B6: activity against Myzus persicae, mixed population, systemic/feeding, curative (pea seedling roots); conditions: 144 h, read-out: activity
[10] = test system: Aphis craccivora (Pea Aphid); experiment: Example B11: activity against Aphis craccivora, mixed population, systemic/feeding; type: in vivo; conditions: 144 h, 6 days, roots in test solution (systemic)
Source text: Activity Against Aphis craccivora (Pea Aphid)
(Mixed Population, Systemic/Feeding)
6 days later, samples are checked for mortality.

Measured: pest or weed control at 400 ppm

O=C(NC1(C2CC2)CC1)c1c(NC(=O)c2cc(C(F)(F)F)nn2-c2ncccc2Cl)c(Br)cc2cn[nH]c12 [P.18]
not listed: [9] | [10]
> 80%: all other assays above

CNC(=O)c1c(NC(=O)c2cc(C(F)(F)F)nn2-c2ncccc2Cl)c(Cl)cc2cn[nH]c12 [P.29]
not listed: [5] | [10]
> 80%: all other assays above

O=C(NC1(C2CC2)CC1)c1c(NC(=O)c2cc(C(F)(F)F)nn2-c2ncccc2Cl)c(Cl)cc2cn[nH]c12 [P.12]
not listed: [10]
> 80%: all other assays above

CCNC(=O)c1c(NC(=O)c2cc(Cl)nn2-c2ncccc2Cl)c(Br)cc2cn[nH]c12 [P.37]
not listed: [5] | [10]
> 80%: all other assays above

O=C(NCC1CC1)c1c(NC(=O)c2cc(C(F)(F)F)nn2-c2ncccc2Cl)c(Br)cc2cn[nH]c12 [P.19]
not listed: [1] | [10]
> 80%: all other assays above

CC(C)(CS(C)(=O)=O)NC(=O)c1c(NC(=O)c2cc(C(F)(F)F)nn2-c2ncccc2Cl)c(Br)cc2cn[nH]c12 [P.34]
not listed: [10]
> 80%: all other assays above

Cc1ccc2c(C(=O)NC(C)C)c(NC(=O)c3cc(C(F)(F)F)nn3-c3ncccc3Cl)c(C)cc2n1 [P.20]
> 80%: [2] | [3] | [6] | [7]

O=C(NC1(C2CC2)CC1)c1c(NC(=O)c2cc(C(F)F)nn2-c2ncccc2Cl)c(Cl)cc2cn[nH]c12 [P.38]
not listed: [1] | [9] | [10]
> 80%: all other assays above

CSCC(C)(C)NC(=O)c1c(NC(=O)c2cc(C(F)(F)F)nn2-c2ncccc2Cl)c(Cl)cc2cn[nH]c12 [P.13]
not listed: [6]
> 80%: all other assays above

COc1cc(C(=O)Nc2c(Br)cc3cn[nH]c3c2C(=O)NC(C)C)n(-c2ncccc2Cl)n1 [P.35]
not listed: [10]
> 80%: all other assays above

CC1(NC(=O)c2c(NC(=O)c3cc(C(F)(F)F)nn3-c3ncccc3Cl)c(Cl)cc3cn[nH]c23)CSC1 [P.32]
not listed: [5] | [8] | [10]
> 80%: all other assays above

O=C(NC1CC12CC2)c1c(NC(=O)c2cc(C(F)(F)F)nn2-c2ncccc2Cl)c(Cl)cc2cn[nH]c12 (stereo not shown) [P.31]
> 80%: [2] | [3] | [4] | [6] | [7] | [8]

CSCC(C)(C)NC(=O)c1c(NC(=O)c2cc(C(F)(F)F)nn2-c2ncccc2Cl)c(Br)cc2cn[nH]c12 [P.33]
> 80%: all assays above

O=C(NCC1CC1)c1c(NC(=O)c2cc(C(F)(F)F)nn2-c2ncccc2Cl)c(Cl)cc2cn[nH]c12 [P.11]
not listed: [1] | [9] | [10]
> 80%: all other assays above
